Earlier results in patent US9839630B2, “Method of preparing (+)-1,4-dihydro-7-[(3S,4S)-3-methoxy-4-(methylamino)-1-pyrrolidinyl]-4-oxo-1-(2-thiazolyl)-1,8-naphthyridine-3-carboxylic acid” (Sunesis Pharmaceuticals, Inc., priority 2008, dated 2017).

Assays:
[1] = data of WO 2007/146335
[2] = system: xenografts; conditions: literature
[3] = system: various cancer cell lines; conditions: literature
[4] = system: ovarian cancer; conditions: human cancer patients, clinical trials
[5] = system: acute myeloid leukemia; conditions: human cancer patients, clinical trials

CO[C@H]1CN(c2ccc3c(=O)c(C(=O)O)cn(-c4nccs4)c3n2)C[C@@H]1N [N-desmethyl compound, (+)-1,4-dihydro-7-[(3S,4S)-3-methoxy-4-amino-1-pyrrolidinyl]-4-oxo-1-(2-thiazolyl)-1,8-naphthyridine-3-carboxylic acid]
activity in a cytotoxicity assay [1]: active

CN[C@H]1CN(c2ccc3c(=O)c(C(=O)O)cn(-c4nccs4)c3n2)C[C@@H]1OC [SNS-595, (+)-1,4-dihydro-7-[(3S,4S)-3-methoxy-4-(methylamino)-1-pyrrolidinyl]-4-oxo-1-(2-thiazolyl)-1,8-naphthyridine-3-carboxylic acid]
preclinical activity against xenografts [2]: preclinical activity
preclinical activity against various cancer cell lines [3]: preclinical activity
clinical activity against ovarian cancer [4]: clinical activity
clinical activity against acute myeloid leukemia [5]: clinical activity
